Experiment [1] concerns S. aureus (strain not given). Description: MIC analysis of various lysins, chimeric lysins and antibiotics in MHB and human serum. The format is cell-based. Particulars: for Minimal inhibitory concentration, MHB / Fold decrease in MIC / Minimal inhibitory concentration, Human serum: Table 14 (Example 2); for Fold decrease in MIC: human serum vs MHB; for MIC: Staphylococcus aureus. How it is done: To further evaluate the binding domain relevance to the serum component effect, various chimerics were constructed by replacing or swapping out one binding domain for another. Chimeric lysins having the Sal1 CHAP catalytic domain with ClyS binding domain, PlySs2 (CF-301) binding domain, or lysostaphin binding domain were assayed for MIC using MHB versus human serum. the results are depicted below in TABLE 14.

The test system of experiment [2] is MRSA strain MW2. Description: Rabbit infective endocarditis model. To be noted: rabbit IE model; daptomycin 4 mg/kg IV once daily for 4 days. It is filed as in vivo, New Zealand White Rabbits.
The test system of experiment [3] is MRSA strain MW2. Description: Checkerboard assay in human serum and MHB. It is filed as cell-based, S. aureus. Particulars: in combination with PlySs2 (CF-301).
The subject of experiment [4] is S. aureus (strain not given). Nature of the experiment: MIC analysis of various lysins, chimeric lysins and antibiotics in MHB and human serum. Particulars: Table 2; for MIC: Staphylococcus aureus; for Fold decrease in MIC: human serum vs MHB. The format is cell-based.
The subject of experiment [5] is methicillin-resistant S. aureus (MRSA) strain MW2. Nature of the experiment: Time-kill assay in blood matrices and MHB. It is filed as cell-based. Particulars: strain MW2; human blood matrices vs MHB.
Experiment [6] relates to staphylococci (strain not given). Nature of the experiment: Checkerboard analysis of PlySs2/CF-301 with AMPs, antimicrobial proteins and albumins in heat-inactivated human serum. The format is cell-based, S. aureus. To be noted: in combination with PlySs2/CF-301.
In experiment [7] the test system is S. aureus strain MW2. Description: Synergy time-kill assay. The format is cell-based. To be noted: human serum.

Values after ≈ are worked out from the molar mass of the structure shown. Read-outs that look alike come from different tables or passages of the source. No end group written: not given here.

In the case of `CCCCCCCCCC(=O)N[C@@H](Cc1c[nH]c2ccccc12)C(=O)N[C@H](CC(N)=O)C(=O)N[C@@H](CC(=O)O)C(=O)N[C@@H]1C(=O)NCC(=O)N[C@@H](CCCN)C(=O)N[C@@H](CC(=O)O)C(=O)N[C@H](C)C(=O)N[C@@H](CC(=O)O)C(=O)NCC(=O)N[C@H](CO)C(=O)N[C@@H]([C@H](C)CC(=O)O)C(=O)N[C@@H](CC(=O)c2ccccc2N)C(=O)O[C@@H]1C` [Daptomycin, daptomycin, reference compound], in experiment [1], the “Minimal inhibitory concentration, MHB” value was 0.5 µg/mL (≈ 0.309 µM); the “Fold decrease in MIC” value is on record as “no”; the “Minimal inhibitory concentration, Human serum” value turned out to be 8 µg/mL (≈ 4.94 µM). In experiment [2], the “reduction in bacterial burden compared to vehicle treated controls” value is on record as 2-3 log10. Besides, in experiment [3] (HuS), the ΣFICAVG is 0.292 and the ΣFICMIN turned out to be 0.25. In experiment [3] (MHB), the ΣFICAVG amounted to 0.63 and the ΣFICMIN came out at 0.5. The MIC in experiment [4] (MHB, read-out: Minimal inhibitory concentration, MHB) was found to be 0.5 µg/mL (≈ 0.309 µM). In addition, the MIC in experiment [4] (human serum, read-out: Minimal inhibitory concentration, Human serum) is 8 µg/mL (≈ 4.94 µM). The “Fold decrease in MIC” value in experiment [4] is on record as “no”.
Consider `CN[C@H](CC(C)C)C(=O)N[C@H]1C(=O)N[C@@H](CC(N)=O)C(=O)N[C@H]2C(=O)N[C@H]3C(=O)N[C@H](C(=O)N[C@H](C(=O)O)c4cc(O)cc(O)c4-c4cc3ccc4O)[C@H](O)c3ccc(c(Cl)c3)Oc3cc2cc(c3O[C@@H]2O[C@H](CO)[C@@H](O)[C@H](O)[C@H]2O[C@H]2C[C@](C)(N)[C@H](O)[C@H](C)O2)Oc2ccc(cc2Cl)[C@H]1O` [Vancomycin, vancomycin, reference compound], for which, in experiment [1], the “Minimal inhibitory concentration, MHB” value was determined as 1 µg/mL (≈ 0.69 µM); the “Fold decrease in MIC” value is given as “no”; the “Minimal inhibitory concentration, Human serum” value was 1 µg/mL (≈ 0.69 µM). For the same molecule, the MIC in experiment [1] (read-out: Minimal inhibitory concentration, Human serum) is 1 µg/mL (≈ 0.69 µM). Besides, the MIC in experiment [1] (read-out: Minimal inhibitory concentration, MHB) is 1 µg/mL (≈ 0.69 µM). For the same molecule, in experiment [3] (HuS), the ΣFICAVG is reported as 0.5 and the ΣFICMIN is given as 0.375. Also, in experiment [3] (MHB), the ΣFICAVG was 0.63 and the ΣFICMIN is 0.5. The “Fold decrease in MIC” value in experiment [4] is “no”. Moreover, the “difference in sterilizing activity/potency, blood compared to MHB” value in experiment [5] was “slightly decreased potency”.
With HNP-1: Human AMP [reference compound], in experiment [6], the ΣFICavg came to 1.
Same read-out and setting: for Histatin-5 [reference compound] the value was at least 1.16; for “LEAP-1: Human AMP (Hepcidin) (DTHFPICIFCCGCCHRSKCGMCCKT; ends and bridges not checked; cysteine pairing not given here; UniProt P81172 60-84, looked up) [reference compound]”, 0.75.
The same measure, in the same setting: for “LEAP-2: Human AMP (MTPFWRGVSLRPIGASCRDDSECITRLCRKRRCSLSVAQE; ends and bridges not checked; cysteine pairing not given here; UniProt Q969E1 38-77, looked up) [reference compound]” the value was 1.
Still for that read-out and setting: for LL-37 [reference compound] the value was 1.
For “Lysostaphin: lysin-like enzyme of Staphylococcus simulans with SH3-type binding domain; SEQ ID NO:7”, the “Minimal inhibitory concentration, MHB” value in experiment [1] and in experiment [4] (MHB) was 2 µg/mL each time. For the same molecule, the “Fold decrease in MIC” value is recorded as 512 in experiment [1], 512 in experiment [4] and 32 in experiment [4] (listed as lysostaphin). Further, the “Minimal inhibitory concentration, Human serum” value in experiment [1] and in experiment [4] (human serum) was 0.0039 µg/mL in each case. Further, in experiment [7], the “concentration of each agent in PlySs2 (CF-301) + lysostaphin combination sterilizing at 24 hours” value stood at 0.005 µg/mL. Besides, the ΣFICAVG in experiment [3] (HuS) is 0.13; in experiment [3] (MHB) it was 0.5. Also, the results for the ΣFICMIN in experiment [3] (HuS) and in experiment [3] (MHB) were 0.09 and 0.275, respectively. Further, the “difference in sterilizing activity/potency, blood compared to MHB” value in experiment [5] worked out at 100 fold.
As for “Lysozyme (Hen egg-white): lysozyme, hen egg”, the ΣFICavg in experiment [6] was at most 0.563.
The same measure, in the same setting: for “Serum albumin (Rabbit, from serum): rabbit serum albumin” the value was at most 0.1.
On the same count and under the same terms, for “β-Defensin 3: Human AMP (hBD-3) (GIINTLQKYYCRVRGGRCAVLSCLPKEEQIGKCSTRGRKCCRRKK; ends and bridges not checked; cysteine pairing not given here; UniProt P81534 23-67, looked up) [reference compound]” the value was 1.

The values above are taken from patent US20220023399A1, “BLOOD COMPONENT POTENTIATION OF LYTIC PROTEIN ANTI-BACTERIAL ACTIVITY AND METHODS AND USES THEREOF” (priority 2017, published 2022).
